{"source": "patent US5514715A", "about": "“Antimicrobial agent, FR109615 and production thereof” (Fujisawa Pharmaceutical Co., Ltd., priority 1987, dated 1996)", "key": {"Candida albicans": {"system": "Candida albicans", "experiment": "Antimicrobial activity, micro-broth dilution method (Test 1)", "format": "cell-based", "settings": "E. MEM, 37° C., 20 hours, 5% CO2, read-out: MIC (minimum inhibitory concentration)", "protocol": "(§1) Test 1 (Antimicrobial activity)\n(§2) Antimicrobial activity of FR109615 was measured by a conventional micro-broth dilution method using 96 well multi-trays.\n(§3) A suspension of the test microorganism (10^6 cells/ml) was prepared by diluting an overnight cultured broth of the organism with Eagle's minimum essential medium (E. MEM). A serially diluted solution of FR109615 in E. MEM (100 μl ) was added to a well of the multi-tray. To the well, the suspension of the test organism was added. The multi-trays were incubated at 37° C. for 20 hours in 5% CO2 atmosphere."}, "Candida krusei": {"system": "Candida krusei", "experiment": "Antimicrobial activity, micro-broth dilution method (Test 1)", "format": "cell-based", "settings": "Pichia kudriavzevii, E. MEM, 37° C., 20 hours, 5% CO2, read-out: MIC (minimum inhibitory concentration)", "protocol": "as §1, §2, §3"}, "Candida utilis": {"system": "Candida utilis", "experiment": "Antimicrobial activity, micro-broth dilution method (Test 1)", "format": "cell-based", "settings": "Williopsis jadinii, E. MEM, 37° C., 20 hours, 5% CO2, read-out: MIC (minimum inhibitory concentration)", "protocol": "as §1, §2, §3"}, "Mucor rouxianus": {"system": "Mucor rouxianus", "experiment": "Antimicrobial activity, micro-broth dilution method (Test 1)", "format": "cell-based", "settings": "E. MEM, 37° C., 20 hours, 5% CO2, read-out: MIC (minimum inhibitory concentration)", "protocol": "as §1, §2, §3"}, "[1]": {"system": "Tricophyton mentagrophytes", "experiment": "Antimicrobial activity, micro-broth dilution method (Test 1)", "format": "cell-based", "settings": "E. MEM, 37° C., 20 hours, 5% CO2, read-out: MIC (minimum inhibitory concentration)", "protocol": "as §1, §2, §3"}, "C. krusei FP585": {"system": "C. krusei FP585", "experiment": "Protective effect against fungi in experimental mice infection (Test 2)", "format": "in vivo, ICR strain", "settings": "Pichia kudriavzevii, sc, 336 h; C. krusei FP585, inoculum 2.0 × 10^7 cfu/head; cyclophosphamide-immunosuppressed mice; subcutaneous, 1 h after challenge then twice a day for 2 days; survival 14 days, probit method", "protocol": "(§4) Test 2 (Protective effect of FR109615 against fungi in experimental mice infection) (1) Test animal 4 Weeks old mice, ICR strain, each weighing 18-21 g. One group consists of 10 mice. (2) Test method 4 Days before challenge, the test mice intraperitoneally received a saline solution of cyclophosphamide (immunosuppressant) ([…]). Each pf pathogenic microorganisms suspended in saline were injected into mice via the lateral tail vein. One hour after challenge, a saline solution of FR109615 was subcutaneously injected into the mice. This treatment was repeated twice a day for 2 days from the next day after challenge."}, "[2]": {"system": "C. pseudotropicalis FP584", "experiment": "Protective effect against fungi in experimental mice infection (Test 2)", "format": "in vivo, ICR strain", "settings": "Kluyveromyces marxianus, sc, 336 h; C. pseudotropicalis FP584, inoculum 2.0 × 10^7 cfu/head; cyclophosphamide-immunosuppressed mice; subcutaneous, 1 h after challenge then twice a day for 2 days; survival 14 days, probit method", "protocol": "as §4"}, "C. stellatoidea FP588": {"system": "C. stellatoidea FP588", "experiment": "Protective effect against fungi in experimental mice infection (Test 2)", "format": "in vivo, ICR strain", "settings": "Candida albicans, sc, 336 h; C. stellatoidea FP588, inoculum 2.0 × 10^6 cfu/head; cyclophosphamide-immunosuppressed mice; subcutaneous, 1 h after challenge then twice a day for 2 days; survival 14 days, probit method", "protocol": "as §4"}, "C. tropicalis 8001": {"system": "C. tropicalis 8001", "experiment": "Protective effect against fungi in experimental mice infection (Test 2)", "format": "in vivo, ICR strain", "settings": "Candida tropicalis, sc, 336 h; C. tropicalis 8001, inoculum 5.6 × 10^4 cfu/head; cyclophosphamide-immunosuppressed mice; subcutaneous, 1 h after challenge then twice a day for 2 days; survival 14 days, probit method", "protocol": "as §4"}, "Candida albicans FP622": {"system": "Candida albicans FP622", "experiment": "Protective effect against fungi in experimental mice infection (Test 2)", "format": "in vivo, ICR strain", "settings": "sc, 336 h; Candida albicans FP622, inoculum 4.8 × 10^4 cfu/head; cyclophosphamide-immunosuppressed mice; subcutaneous, 1 h after challenge then twice a day for 2 days; survival 14 days, probit method", "protocol": "as §4"}, "[3]": {"system": "Staphylococcus aureus Smith", "experiment": "Protective effect against bacteria in experimental mice infection (Test 3)", "format": "in vivo, ICR strain", "settings": "inoculum 2.5 × 10^8 cfu, 10 mg/kg subcutaneous once a day for 4 days, 11 days observation, all control mice died", "protocol": "Test 3 (Protective effect of FR109615 against bacteria in experimental mice infection)\n4 Weeks old mice, ICR strain, each weighing 18-21 g. One group consists of 10 mice.\nPathogenic microorganism suspended in saline were injected into mice via the lateral tail vein. After challenge, a saline solution of FR109615 was subcutaneously injected into the mice (Dosage: 10 mg/kg) once a day for 4 days. […] All of the control mice (non-treatment group) died."}, "ICR mice": {"system": "ICR mice", "experiment": "Acute toxicity (Test 4)", "format": "in vivo, 4 weeks old)", "settings": "female, single intravenous injection, 1 g/kg", "protocol": "The acute toxicity of FR109615 was determined to ICR mice (female, 4 weeks old) by a single intravenous injection."}, "[4]": {"experiment": "Solubility (physicochemical properties)"}, "[5]": {"system": "pathogenic microorganisms, especially pathogenic fungi such as pathogenic yeast (e.g. Candida albicans)", "experiment": "Antimicrobial activity against pathogenic microorganisms (general statement)"}}, "data": [{"smiles": "N[C@H]1CCC[C@H]1C(=O)O", "note": "[FR109615, (1R, 2S)-2-aminocyclopentanecarboxylic]", "values": [{"measurement": "MIC", "setting": "Candida albicans", "value": 16, "unit": "µg/mL"}, {"measurement": "MIC", "setting": "Candida krusei", "value": 8, "unit": "µg/mL"}, {"measurement": "MIC", "setting": "Candida utilis", "value": 32, "unit": "µg/mL"}, {"measurement": "MIC", "setting": "Mucor rouxianus", "value": 500, "unit": "µg/mL"}, {"measurement": "MIC", "setting": "[1]", "value": 250, "unit": "µg/mL"}, {"measurement": "ED50", "setting": "C. krusei FP585", "value": 0.78, "unit": "mg/kg"}, {"measurement": "ED50", "setting": "[2]", "value": 2.38, "unit": "mg/kg"}, {"measurement": "ED50", "setting": "C. stellatoidea FP588", "value": 1.11, "unit": "mg/kg"}, {"measurement": "ED50", "setting": "C. tropicalis 8001", "value": 3.8, "unit": "mg/kg"}, {"measurement": "ED50", "setting": "Candida albicans FP622", "value": 0.87, "unit": "mg/kg"}, {"measurement": "survival ratio", "setting": "[3]", "value": 100, "unit": "%"}, {"measurement": "acute toxicity, toxic symptom", "setting": "ICR mice", "value": "No toxic symptom was observed"}, {"measurement": "Solubility", "setting": "[4]; Acetone", "value": "Insoluble"}, {"measurement": "Solubility", "setting": "[4]; Chloroform", "value": "Insoluble"}, {"measurement": "Solubility", "setting": "[4]; Ethanol", "value": "Sparingly soluble"}, {"measurement": "Solubility", "setting": "[4]; Ethyl acetate", "value": "Insoluble"}, {"measurement": "Solubility", "setting": "[4]; Methanol", "value": "Sparingly soluble"}, {"measurement": "Solubility", "setting": "[4]; Water", "value": "Soluble"}, {"measurement": "antimicrobial activity", "setting": "[5]", "value": "strong antimicrobial activity"}]}]}
